Values of other authors as cited in PMC4138512 (Journal of computer-aided molecular design, 2014).

Test system: BoNT/A

SMILES | Inhibition in combination with 2,4-dichlorocinnamic hydroxamate | Type of inhibition of BoNT/A | Inhibition in combination with 2,4-dichlorocinnamic hydroxamate and chicoric acid
O=C(/C=C/c1ccc(O)c(O)c1)O[C@H](C(=O)O)[C@H](OC(=O)/C=C/c1ccc(O)c(O)c1)C(=O)O [D-chicoric acid] | nonmutually exclusive inhibition | partial inhibition | –
COC(=O)c1ccc(O)c2nc3c(C=O)c(O)cc(O)c3nc12 [lomofungin] | – | non-competitive | synergistic inhibition
